Source: ChEMBL document CHEMBL2163283, “Design and synthesis of novel stiripentol analogues as potential anticonvulsants” (Eur J Med Chem, 2012)
The source made the active and inactive calls. No cut-off for these calls is given here.

How the values were obtained:
Mus musculus [1] = assay: Anticonvulsant activity in Swiss albino mouse assessed as protection against subcutaneous pentylenetetrazol-induced seizures at 346 umol/kg, ip administered 30 mins before pentylenetetrazole challenge measured after 30 mins; format: functional
Mus musculus [2] = assay: Anticonvulsant activity in Swiss albino mouse assessed as protection against subcutaneous pentylenetetrazol-induced seizures at 346 umol/kg, ip administered 30 mins before pentylenetetrazole challenge measured after 30 mins relative to stiripentol; format: functional
Mus musculus [3] = assay: Anticonvulsant activity in Swiss albino mouse assessed as maximal electroshock-induced seizures at 346 umol/kg, ip administered 30 mins before electroshock challenge; format: functional
Mus musculus [4] = assay: Anticonvulsant activity in ip dosed Swiss albino mouse assessed as maximal electroshock-induced seizures administered 30 mins before electroshock challenge; format: functional
Mus musculus [5] = assay: Neurotoxicity in Swiss albino mouse assessed as effect on hindlimb grip strength at 346 umol/kg, sc administered measured every 15 mins for 2 hrs; format: toxicity, organism-based; conditions: in vivo
Mus musculus [6] = assay: Neurotoxicity in Swiss albino mouse assessed as climbing response to inverted mesh at 346 umol/kg, sc administered measured every 15 mins for 2 hrs by wire mesh grasping test; format: toxicity, organism-based; conditions: in vivo
Mus musculus [7] = assay: Anticonvulsant activity in Swiss albino mouse assessed as protection against subcutaneous pentylenetetrazol-induced seizures at 410 umol/kg, ip administered 30 mins before pentylenetetrazole challenge measured after 30 mins relative to stiripentol; format: functional
Mus musculus [8] = assay: Anticonvulsant activity in Swiss albino mouse assessed as protection against subcutaneous pentylenetetrazol-induced seizures at 410 umol/kg, ip administered 30 mins before pentylenetetrazole challenge measured after 30 mins; format: functional
Mus musculus [9] = assay: Anticonvulsant activity in Swiss albino mouse assessed as maximal electroshock-induced seizures at 410 umol/kg, ip administered 30 mins before electroshock challenge; format: functional
Mus musculus [10] = assay: Anticonvulsant activity in Swiss albino mouse assessed as protection against subcutaneous pentylenetetrazol-induced seizures at 330 umol/kg, ip administered 30 mins before pentylenetetrazole challenge measured after 30 mins; format: functional
Mus musculus [11] = assay: Anticonvulsant activity in Swiss albino mouse assessed as protection against subcutaneous pentylenetetrazol-induced seizures at 330 umol/kg, ip administered 30 mins before pentylenetetrazole challenge measured after 30 mins relative to stiripentol; format: functional
Mus musculus [12] = assay: Anticonvulsant activity in Swiss albino mouse assessed as maximal electroshock-induced seizures at 330 umol/kg, ip administered 30 mins before electroshock challenge; format: functional
Mus musculus [13] = assay: Anticonvulsant activity in Swiss albino mouse assessed as protection against subcutaneous pentylenetetrazol-induced seizures at 370 umol/kg, ip administered 30 mins before pentylenetetrazole challenge measured after 30 mins; format: functional
Mus musculus [14] = assay: Anticonvulsant activity in Swiss albino mouse assessed as protection against subcutaneous pentylenetetrazol-induced seizures at 370 umol/kg, ip administered 30 mins before pentylenetetrazole challenge measured after 30 mins relative to stiripentol; format: functional
Mus musculus [15] = assay: Anticonvulsant activity in Swiss albino mouse assessed as maximal electroshock-induced seizures at 370 umol/kg, ip administered 30 mins before electroshock challenge; format: functional, organism-based
Mus musculus [16] = assay: Anticonvulsant activity in Swiss albino mouse assessed as protection against subcutaneous pentylenetetrazol-induced seizures at 390 umol/kg, ip administered 30 mins before pentylenetetrazole challenge measured after 30 mins; format: functional
Mus musculus [17] = assay: Anticonvulsant activity in Swiss albino mouse assessed as protection against subcutaneous pentylenetetrazol-induced seizures at 390 umol/kg, ip administered 30 mins before pentylenetetrazole challenge measured after 30 mins relative to stiripentol; format: functional
Mus musculus [18] = assay: Anticonvulsant activity in Swiss albino mouse assessed as maximal electroshock-induced seizures at 390 umol/kg, ip administered 30 mins before electroshock challenge; format: functional, organism-based
Mus musculus [19] = assay: Anticonvulsant activity in Swiss albino mouse assessed as protection against subcutaneous pentylenetetrazol-induced seizures at 340 umol/kg, ip administered 30 mins before pentylenetetrazole challenge measured after 30 mins; format: functional
Mus musculus [20] = assay: Anticonvulsant activity in Swiss albino mouse assessed as protection against subcutaneous pentylenetetrazol-induced seizures at 340 umol/kg, ip administered 30 mins before pentylenetetrazole challenge measured after 30 mins relative to stiripentol; format: functional
Mus musculus [21] = assay: Anticonvulsant activity in Swiss albino mouse assessed as maximal electroshock-induced seizures at 340 umol/kg, ip administered 30 mins before electroshock challenge; format: functional
Mus musculus [22] = assay: Anticonvulsant activity in Swiss albino mouse assessed as protection against subcutaneous pentylenetetrazol-induced seizures at 357 umol/kg, ip administered 30 mins before pentylenetetrazole challenge measured after 30 mins; format: functional
Mus musculus [23] = assay: Anticonvulsant activity in Swiss albino mouse assessed as protection against subcutaneous pentylenetetrazol-induced seizures at 357 umol/kg, ip administered 30 mins before pentylenetetrazole challenge measured after 30 mins relative to stiripentol; format: functional
Mus musculus [24] = assay: Anticonvulsant activity in Swiss albino mouse assessed as maximal electroshock-induced seizures at 357 umol/kg, ip administered 30 mins before electroshock challenge; format: functional

Q: Which Activity (Mus musculus [1]) does the source give for `CC(C)(C)C(/C=C/c1ccc2c(c1)OCO2)=N/NC(N)=O` here?
A: 50%

Q: What about the Activity (Mus musculus [2]) of the same compound?
A: 1.42%

Q: And the Activity (Mus musculus [3])?
A: 100%

Q: And the ED50 (Mus musculus [4])?
A: 87 mg/kg

Q: And the Activity (Mus musculus [5])?
A: Toxic

Q: What about the Activity (Mus musculus [6]) of the same compound?
A: Toxic

Q: How did the Activity (Mus musculus [7]) turn out when `CC(C)(C)C(/C=C/c1ccc2c(c1)OCO2)=N/NC(=O)Nc1ccccc1` was run?
A: 1.3%

Q: And the Activity (Mus musculus [8])?
A: 66%

Q: And the Activity (Mus musculus [9])?
A: inactive

Q: `CC(C)(C)C(/C=C/c1ccc2c(c1)OCO2)=N/NC(=O)Nc1ccc(Br)cc1` was tested. Which Activity (Mus musculus [10]) did it give?
A: 66%

Q: What about the Activity (Mus musculus [11]) of the same compound?
A: 1.6%

Q: What about the Activity (Mus musculus [12]) of the same compound?
A: 16%

Q: With `CC(C)(C)C(/C=C/c1ccc2c(c1)OCO2)=N/NC(=O)Nc1ccc(Cl)cc1` as the compound, how does the Activity (Mus musculus [13]) read?
A: 33%

Q: What about the Activity (Mus musculus [14]) of the same compound?
A: 1.15%

Q: And the Activity (Mus musculus [15])?
A: inactive

Q: What does the source list for `Cc1ccc(NC(=O)N/N=C(\C=C\c2ccc3c(c2)OCO3)C(C)(C)C)cc1`?
A: Activity (Mus musculus [16]): 16%; Activity (Mus musculus [17]): 0.98 ratio to stiripentol; Activity (Mus musculus [18]): inactive

Q: How did the Activity (Mus musculus [16]) turn out when `Cc1ccccc1NC(=O)N/N=C(\C=C\c1ccc2c(c1)OCO2)C(C)(C)C` was run?
A: 83%

Q: What about the Activity (Mus musculus [17]) of the same compound?
A: 1.48 ratio to stiripentol

Q: What about the Activity (Mus musculus [18]) of the same compound?
A: inactive

Q: `CC(C)(C)C(/C=C/c1ccc2c(c1)OCO2)=N/NC(=O)Nc1ccc(Cl)cc1Cl` was tested. Which Activity (Mus musculus [19]) did it give?
A: 33%

Q: And the Activity (Mus musculus [20])?
A: 1.26%

Q: And the Activity (Mus musculus [21])?
A: 16%

Q: Which results are given for `CC(C)(C)C(/C=C/c1ccc2c(c1)OCO2)=N/NC(=O)Nc1ccc(F)cc1`?
A: Activity (Mus musculus [16]): 50%; Activity (Mus musculus [17]): 1.26 ratio to stiripentol; Activity (Mus musculus [18]): inactive

Q: For `Cc1ccccc1C(=O)N1N=C(C(C)(C)C)CC1c1ccc2c(c1)OCO2` (racemic), which Activity (Mus musculus [7]) is on record?
A: inactive

Q: What about the Activity (Mus musculus [8]) of the same compound?
A: inactive

Q: And the Activity (Mus musculus [9])?
A: 16%

Q: With `CC(C)(C)C1=NN(C(=O)c2ccc(Cl)cc2Cl)C(c2ccc3c(c2)OCO3)C1` (racemic) as the compound, how does the Activity (Mus musculus [22]) read?
A: 33%

Q: And the Activity (Mus musculus [23])?
A: 1.19%

Q: What about the Activity (Mus musculus [24]) of the same compound?
A: 16%

Q: How did the Activity (Mus musculus [7]) turn out when `CC(C)(C)C1=NN(C(=O)Nc2ccccc2)C(c2ccc3c(c2)OCO3)C1` (racemic) was run?
A: 1.3%

Q: What about the Activity (Mus musculus [8]) of the same compound?
A: 66%

Q: And the Activity (Mus musculus [9])?
A: 16%

Q: Which Activity (Mus musculus [10]) does the source give for `CC(C)(C)C1=NN(C(=O)Nc2ccc(Br)cc2)C(c2ccc3c(c2)OCO3)C1` (racemic) here?
A: 33%

Q: And the Activity (Mus musculus [11])?
A: 1.29%

Q: What about the Activity (Mus musculus [12]) of the same compound?
A: inactive
